From patent publication US9586951B2 (FUJIFILM Corporation, priority 2013, dated 2017)

Assays:
[1] = test system: human non-small cell lung cancer cell line NCI-H460; assay: Cell proliferation inhibition test by sensitivity-enhancing to ionizing radiation (Cell Titer Glo); assay type: cell-based; conditions: Homo sapiens, NCI-H460, 120 h, concentration in which SER became 2; NCI-H460 cells, ionizing radiation 2 Gy, cultured 120 hour
In short: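 Radiosensitisation measured as SER, a ratio of Cell Titer Glo luminescence in irradiated vs unirradiated plates relative to DMSO; SER2, the concentration yielding SER 2, came from sigmoidal regression. Compound (0.1% DMSO) was given 24 h post-seeding, 2 Gy applied 30 min later, then 120 hour culture at 37° C.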

ATM = target: T1, ATM (Homo sapiens, UniProt Q13315); assay: ATM inhibition test (phosphorylation of Chk2 generated by ionizing radiation, AlphaScreen SureFire); assay type: cell-based; conditions: phosphorylated Chk2 in NCI-H460 cells, ionizing radiation 8Gy, 1 hour after test compound treatment; read-out: ATM inhibitory activity
T1 construct: detecting phosphorylation of Chk2 in a human non-small cell lung cancer cell line NCI-H460 (ATCC company); host or cells: NCI-H460 human non-small cell lung cancer cells
In short: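 In NCI-H460 cells, radiation-triggered Chk2 phosphorylation (8Gy, 1 h) is detected by AlphaScreen SureFire following 1 h compound exposure.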

T1 sequence (Q13315 whole entry): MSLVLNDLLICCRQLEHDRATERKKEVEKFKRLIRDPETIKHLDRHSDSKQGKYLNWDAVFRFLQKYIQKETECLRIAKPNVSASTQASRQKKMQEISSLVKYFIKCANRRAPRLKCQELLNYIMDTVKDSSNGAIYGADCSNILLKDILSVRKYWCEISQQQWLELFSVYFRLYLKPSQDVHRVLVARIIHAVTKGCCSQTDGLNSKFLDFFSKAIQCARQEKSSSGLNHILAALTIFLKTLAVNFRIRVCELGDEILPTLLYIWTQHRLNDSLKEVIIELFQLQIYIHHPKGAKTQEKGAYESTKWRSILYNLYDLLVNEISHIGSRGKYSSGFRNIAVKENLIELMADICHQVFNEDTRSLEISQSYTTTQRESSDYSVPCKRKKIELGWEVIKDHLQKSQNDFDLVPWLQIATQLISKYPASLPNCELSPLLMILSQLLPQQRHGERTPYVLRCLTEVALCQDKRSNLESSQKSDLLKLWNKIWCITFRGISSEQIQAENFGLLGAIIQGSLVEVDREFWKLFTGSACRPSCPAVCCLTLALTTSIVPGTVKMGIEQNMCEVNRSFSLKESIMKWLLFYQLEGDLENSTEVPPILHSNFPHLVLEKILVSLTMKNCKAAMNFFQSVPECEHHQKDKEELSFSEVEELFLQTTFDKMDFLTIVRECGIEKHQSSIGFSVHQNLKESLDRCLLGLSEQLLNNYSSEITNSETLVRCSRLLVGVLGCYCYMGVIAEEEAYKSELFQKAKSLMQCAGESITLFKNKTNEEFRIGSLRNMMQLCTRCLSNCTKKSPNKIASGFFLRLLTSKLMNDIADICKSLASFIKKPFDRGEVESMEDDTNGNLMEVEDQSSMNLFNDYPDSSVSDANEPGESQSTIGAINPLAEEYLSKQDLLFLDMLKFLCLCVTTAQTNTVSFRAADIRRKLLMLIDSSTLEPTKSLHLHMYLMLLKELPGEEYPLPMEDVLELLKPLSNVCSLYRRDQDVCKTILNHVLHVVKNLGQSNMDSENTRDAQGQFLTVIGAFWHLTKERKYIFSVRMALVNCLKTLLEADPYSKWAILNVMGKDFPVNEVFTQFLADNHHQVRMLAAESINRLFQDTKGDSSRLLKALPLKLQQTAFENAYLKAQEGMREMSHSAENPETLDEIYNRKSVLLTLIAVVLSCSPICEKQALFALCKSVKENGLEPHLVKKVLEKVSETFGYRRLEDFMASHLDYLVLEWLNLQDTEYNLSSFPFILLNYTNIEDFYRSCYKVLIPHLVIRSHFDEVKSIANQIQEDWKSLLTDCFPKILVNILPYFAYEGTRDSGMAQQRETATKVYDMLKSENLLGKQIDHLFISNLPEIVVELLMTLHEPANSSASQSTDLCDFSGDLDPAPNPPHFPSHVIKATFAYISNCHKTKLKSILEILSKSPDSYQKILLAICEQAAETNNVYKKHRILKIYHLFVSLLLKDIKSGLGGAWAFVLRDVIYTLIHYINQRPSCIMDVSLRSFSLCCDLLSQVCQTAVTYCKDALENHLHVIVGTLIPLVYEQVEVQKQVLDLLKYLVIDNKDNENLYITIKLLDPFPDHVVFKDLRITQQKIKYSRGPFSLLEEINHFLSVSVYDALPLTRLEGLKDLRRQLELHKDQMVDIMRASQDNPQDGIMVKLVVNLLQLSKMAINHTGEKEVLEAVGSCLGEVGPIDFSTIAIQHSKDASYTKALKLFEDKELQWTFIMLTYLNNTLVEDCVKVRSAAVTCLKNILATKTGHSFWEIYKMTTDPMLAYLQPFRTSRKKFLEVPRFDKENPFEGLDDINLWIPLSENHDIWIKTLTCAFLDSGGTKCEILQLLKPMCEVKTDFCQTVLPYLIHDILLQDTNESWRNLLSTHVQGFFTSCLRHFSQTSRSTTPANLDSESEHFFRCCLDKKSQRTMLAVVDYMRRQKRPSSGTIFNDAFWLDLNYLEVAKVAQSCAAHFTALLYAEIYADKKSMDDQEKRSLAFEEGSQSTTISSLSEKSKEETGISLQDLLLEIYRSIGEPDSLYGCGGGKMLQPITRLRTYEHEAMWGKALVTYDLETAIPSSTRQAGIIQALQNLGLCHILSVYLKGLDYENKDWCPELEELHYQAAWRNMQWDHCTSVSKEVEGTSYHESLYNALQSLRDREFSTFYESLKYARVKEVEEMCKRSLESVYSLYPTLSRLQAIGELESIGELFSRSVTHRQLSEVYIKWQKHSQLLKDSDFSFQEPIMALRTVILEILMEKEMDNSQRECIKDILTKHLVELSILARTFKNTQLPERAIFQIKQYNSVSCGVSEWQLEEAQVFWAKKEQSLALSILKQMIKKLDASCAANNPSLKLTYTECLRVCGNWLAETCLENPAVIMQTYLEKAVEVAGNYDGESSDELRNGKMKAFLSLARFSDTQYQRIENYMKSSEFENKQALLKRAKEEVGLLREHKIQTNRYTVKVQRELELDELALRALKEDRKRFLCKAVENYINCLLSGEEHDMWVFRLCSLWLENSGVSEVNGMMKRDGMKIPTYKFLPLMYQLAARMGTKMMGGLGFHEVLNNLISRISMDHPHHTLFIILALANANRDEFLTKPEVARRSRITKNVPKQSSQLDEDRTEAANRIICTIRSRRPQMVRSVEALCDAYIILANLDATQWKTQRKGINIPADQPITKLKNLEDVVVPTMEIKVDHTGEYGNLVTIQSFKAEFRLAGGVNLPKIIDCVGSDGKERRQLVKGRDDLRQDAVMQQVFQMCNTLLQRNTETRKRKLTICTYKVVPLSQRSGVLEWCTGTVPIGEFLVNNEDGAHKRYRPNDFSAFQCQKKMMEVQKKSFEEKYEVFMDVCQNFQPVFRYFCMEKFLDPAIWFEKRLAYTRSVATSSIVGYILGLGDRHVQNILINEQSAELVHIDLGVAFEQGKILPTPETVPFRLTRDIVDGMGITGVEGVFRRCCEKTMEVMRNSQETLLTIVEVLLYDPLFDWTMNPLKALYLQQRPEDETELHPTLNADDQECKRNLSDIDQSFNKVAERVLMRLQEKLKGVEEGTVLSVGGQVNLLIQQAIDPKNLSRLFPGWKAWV

Compound | IC50 (ATM) [nM] | SER2 (concentration at which the radiation sensitivity-enhancement ratio reaches 2) [1] [nM]
Cc1cnc(C(C)Nc2ccc3c(c2)Sc2cccc(-c4cc(N5CCOCC5)cc(=O)[nH]4)c2S3)nc1 (stereo not shown) [Example 1-12-70, 6-(7-((1-(5-Methylpyrimidin-2-yl)ethyl)amino)thianthren-1-yl)-4-morpholino pyridin-2(1H)-one] | < 100 | < 100
COc1ccnc(C(C)Nc2ccc3c(c2)Sc2cccc(-c4cc(N5CCOCC5)cc(=O)[nH]4)c2S3)n1 (stereo not shown) [Example 1-12-77, 6-(7-((1-(4-Methoxypyrimidin-2-yl)ethyl)amino)thianthren-1-yl)-4-morpholino pyridin-2(1H)-one] | < 100 | 100 to 500
CC(Nc1ccc2c(c1)Sc1cccc(-c3cc(N4CCOCC4)cc(=O)[nH]3)c1S2)c1nccc(CF)n1 (stereo not shown) [Example 1-12-85, 6-(7-((1-(4-(Fluoromethyl)pyrimidin-2-yl)ethyl)amino)thianthren-1-yl)-4-morpholino pyridin-2(1H)-one] | < 100 | < 100
Cc1ccnc(C(CF)Nc2ccc3c(c2)Sc2cccc(-c4cc(N5CCOCC5)cc(=O)[nH]4)c2S3)n1 (stereo not shown) [Example 1-12-89, 6-(7-((2-Fluoro-1-(4-methylpyrimidin-2-yl)ethyl)amino)thianthren-1-yl)-4-morpholino pyridin-2(1H)-one] | < 100 | 100 to 500
Cc1ccnc(C(CO)Nc2ccc3c(c2)Sc2cccc(-c4cc(N5CCOCC5)cc(=O)[nH]4)c2S3)n1 (stereo not shown) [Example 1-12-90, 6-(7-((2-Hydroxy-1-(4-methylpyrimidin-2-yl)ethyl)amino)thianthren-1-yl)-4-morpholino pyridin-2(1H)-one] | < 100 | 100 to 500
CC(Nc1ccc2c(c1)Sc1cccc(-c3cc(N4CCOCC4)cc(=O)[nH]3)c1S2)c1cc(CF)ncn1 (stereo not shown) [Example 1-12-91, 6-(7-((1-(6-(Fluoromethyl)pyrimidin-4-yl)ethyl)amino)thianthren-1-yl)-4-morpholino pyridin-2(1H)-one] | < 100 | 100 to 500
Cc1cnc(C(CF)Nc2ccc3c(c2)Sc2cccc(-c4cc(N5CCOCC5)cc(=O)[nH]4)c2S3)nc1 (stereo not shown) [Example 1-12-93, 6-(7-((2-Fluoro-1-(5-methylpyrimidin-2-yl)ethyl)amino)thianthren-1-yl)-4-morpholino pyridin-2(1H)-one] | < 100 | 100 to 500
COCCOCC(Nc1ccc2c(c1)Sc1cccc(-c3cc(N4CCOCC4)cc(=O)[nH]3)c1S2)c1nccc(C)n1 (stereo not shown) [Example 1-12-97, 6-(7-((2-(2-Methoxyethoxy)-1-(4-methylpyrimidin-2-yl)ethyl)amino)thianthren-1-yl)-4-morpholino pyridin-2(1H)-one] | < 100 | 100 to 500
COCCOCC(Nc1ccc2c(c1)Sc1cccc(-c3cc(N4CCOCC4)cc(=O)[nH]3)c1S2)c1ncc(C)cn1 (stereo not shown) [Example 1-12-98, 6-(7-((2-(2-Methoxyethoxy)-1-(5-methylpyrimidin-2-yl)ethyl)amino)thianthren-1-yl)-4-morpholino pyridin-2(1H)-one] | < 100 | 100 to 500
COC(=O)C(Nc1ccc2c(c1)Sc1cccc(-c3cc(N4CCOCC4)cc(=O)[nH]3)c1S2)c1cccc(C)n1 (stereo not shown) [Example 1-12-107, Methyl 2-(6-methylpyridin 2-yl)-2-((6-(4-morpholino-6-oxo-1,6-dihydropyridin-2 yl)thianthren-2-yl)amino) acetate] | < 100 | 100 to 500
Cc1ccc(C(C)Nc2ccc3c(c2)Sc2cccc(-c4cc(N5CCOCC5)cc(=O)[nH]4)c2S3)nc1 (stereo not shown) [Example 1-12-113, 6-(7-((1-(5-Methylpyridin-2-yl)ethyl)amino)thianthren-1-yl)-4-morpholino pyridin-2(1H)-one] | < 100 | 100 to 500
COc1cnc(C(C)Nc2ccc3c(c2)Sc2cccc(-c4cc(N5CCOCC5)cc(=O)[nH]4)c2S3)cn1 (stereo not shown) [Example 1-12-114, 6-(7-((1-(5-Methoxypyrazin-2-yl)ethyl)amino)thianthren-1-yl)-4-morpholino pyridin-2(1H) one] | < 100 | 100 to 500
CCC(Nc1ccc2c(c1)Sc1cccc(-c3cc(N4CCOCC4)cc(=O)[nH]3)c1S2)c1ccc(C)cn1 (stereo not shown) [Example 1-12-118, 6-(7-((1-(5-Methylpyridin-2-yl)propyl)amino)thianthren-1-yl)-4-morpholino pyridin-2(1H)-one] | < 100 | 100 to 500
Cc1ccc(C(Nc2ccc3c(c2)Sc2cccc(-c4cc(N5CCOCC5)cc(=O)[nH]4)c2S3)C(C)C)nc1 (stereo not shown) [Example 1-12-121, 6-(7-((2-Methyl-1-(5-methylpyridin-2-yl)propyl)amino)thianthren-1-yl)-4-morpholino pyridin-2(1H)-one] | < 100 | 100 to 500
Cc1ccc(C(Nc2ccc3c(c2)Sc2cccc(-c4cc(N5CCOCC5)cc(=O)[nH]4)c2S3)C2CC2)nc1 (stereo not shown) [Example 1-12-123, 6-(7-((Cyclopropyl(5-methylpyridin-2-yl)methyl)amino)thianthren-1-yl)-4-morpholino pyridin-2(1H)-one] | < 100 | 100 to 500
COCCCC(Nc1ccc2c(c1)Sc1cccc(-c3cc(N4CCOCC4)cc(=O)[nH]3)c1S2)c1ccc(C)cn1 (stereo not shown) [Example 1-12-130, 6-(7-((4-Methoxy-1-(5-methylpyridin-2-yl)butyl)amino)thianthren-1-yl)-4-morpholino pyridin-2(1H)-one] | < 100 | 100 to 500
Cc1ccc(C(CCC2OCCCO2)Nc2ccc3c(c2)Sc2cccc(-c4cc(N5CCOCC5)cc(=O)[nH]4)c2S3)nc1 (stereo not shown) [Example 1-12-131, 6-(7-((3-(1,3-Dioxan-2-yl)-1-(5-methylpyridin-2-yl)propyl)amino)thianthren-1-yl)-4-morpholino pyridin-2 (1H)-one] | < 100 | 100 to 500
COc1cccc(C(CO)Nc2ccc3c(c2)Sc2cccc(-c4cc(N5CCOCC5)cc(=O)[nH]4)c2S3)n1 (stereo not shown) [Example 1-12-132, 6-(7-((2-Hydroxy-1-(6-methoxypyridin-2-yl)ethyl)amino)thianthren-1-yl)-4-morpholino pyridin-2(1H)-one] | < 100 | 100 to 500

Further lines, with some results ahead:

IC50 (ATM) [nM] | Compound | SER2 (concentration at which the radiation sensitivity-enhancement ratio reaches 2) [1] [nM]
< 100 | Cc1cccc(C(CO)Nc2ccc3c(c2)Sc2cccc(-c4cc(N5CCOCC5)cc(=O)[nH]4)c2S3)n1 (stereo not shown) [Example 1-12-71, 6-(7-((2-Hydroxy-1-(6-methylpyridin-2-yl)ethyl)amino)thianthren-1-yl)-4-morpholino pyridin-2(1H)-one] | 100 to 500
< 100 | Cc1cncc(C(C)Nc2ccc3c(c2)Sc2cccc(-c4cc(N5CCOCC5)cc(=O)[nH]4)c2S3)n1 (stereo not shown) [Example 1-12-73, 6-(7-((1-(6-Methylpyrazin-2-yl)ethyl)amino)thianthren-1-yl)-4-morpholino pyridin-2 (1H)-one] | < 100
< 100 | Cc1cc(C(C)Nc2ccc3c(c2)Sc2cccc(-c4cc(N5CCOCC5)cc(=O)[nH]4)c2S3)ncn1 (stereo not shown) [Example 1-12-75, 6-(7-((1-(6-Methylpyrimidin-4-yl)ethyl)amino)thianthren-1-yl)-4-morpholino pyridin-2 (1H)-one] | 100 to 500
< 100 | CC(Nc1ccc2c(c1)Sc1cccc(-c3cc(N4CCOCC4)cc(=O)[nH]3)c1S2)c1nccc(C(F)F)n1 (stereo not shown) [Example 1-12-87, 6-(7-((1-(4-(Difluoromethyl)pyrimidin-2-yl)ethyl)amino)thianthren-1-yl)-4-morpholino pyridin-2(1H)-one] | 100 to 500
< 100 | COCC(Nc1ccc2c(c1)Sc1cccc(-c3cc(N4CCOCC4)cc(=O)[nH]3)c1S2)c1ncc(C)cn1 (stereo not shown) [Example 1-12-96, 6-(7-((2-Methoxy-1-(5-methylpyrimidin-2-yl)ethyl)amino)thianthren-1-yl)-4-morpholino pyridin-2(1H)-one] | 100 to 500
< 100 | COCC(Nc1ccc2c(c1)Sc1cccc(-c3cc(N4CCOCC4)cc(=O)[nH]3)c1S2)c1ccc(C)cn1 (stereo not shown) [Example 1-12-100, 6-(7-((2-Methoxy-1-(5-methylpyridin-2-yl)ethyl)amino)thianthren-1-yl)-4-morpholino pyridin-2(1H)-one] | < 100
< 100 | COCCOCC(Nc1ccc2c(c1)Sc1cccc(-c3cc(N4CCOCC4)cc(=O)[nH]3)c1S2)c1ccc(C)cn1 (stereo not shown) [Example 1-12-102, 6-(7-((2-(2-Methoxyethoxy)-1-(5-methylpyridin-2-yl)ethyl)amino)thianthren-1-yl)-4-morpholino pyridin-2(1H)-one] | 100 to 500
< 100 | COC(=O)C(Nc1ccc2c(c1)Sc1cccc(-c3cc(N4CCOCC4)cc(=O)[nH]3)c1S2)c1ccc(C)cn1 (stereo not shown) [Example 1-12-108, Methyl 2-(5-methylpyridin-2-yl)-2-((6-(4-morpholino-6-oxo-1,6-dihydropyridin-2-yl)thianthren-2-yl)amino) acetate] | 100 to 500
